Columns and labels:
[1] = tested on: Vero cells (normal kidney epithelial cell); assay: MTT cell viability assay, Vero cells; format: cell-based; settings: read-out: IC50 Vero, 72 h, mean ± S.E.M., n = 3
[2] = tested on: A549 cells (EGFR wild-type non-small-cell lung cancer); assay: MTT cell viability assay, A549 cells; format: cell-based; settings: Homo sapiens, A549, 72 h, read-out: IC50 A549

**Q.** For `CN(C)C/C=C/C(=O)Nc1cc2c(Nc3ccc(F)c(Cl)c3)ncnc2cc1O[C@H]1CCOC1` [Afatinib], which IC50 [1] is on record?
**A.** The IC50 was 5.77 ± 1.59 µM.

**Q.** And the IC50 [2]?
**A.** The IC50 was 13.1 ± 0.8 µM.

Source: paper PMC11781080 (RSC Advances, 2025)
